Data as given in patent publication US20090053751A1, “Chemiluminescent Method and Device for Evaluating the In Vivo Functional State of Phagocytes” (priority 2005, published 2009).

Tested on: phagocytes
Test: Luminol-amplified chemiluminescence (CL) kinetics of zymosan-stimulated diluted whole blood
Format: cell-based, human
Method: Zymosan-A (Sigma Chemical Co.) was used as a phagocyte-stimulating agent. It was opsonized for 30 min at 37° C. in sample serum (20 mg/mL) and washed twice in 0.9% NaCl. The zymosan suspension in Krebs-Ringer phosphate medium (KRP) was prepared immediately prior to use. KRP was composed of 119 mmol/L NaCl, 4.75 mmol/L KCl, 0.420 mmol/L CaCl2, 1.19 mmol/L MgSO4.7H2O, 16.6 mmol/L sodium phosphate buffer, pH 7.4 and 5.56 mmol/L glucose (De Sole et al., 1983). Luminol (Sigma Chemical Co.) was used to amplify the chemiluminescence activity. A luminol stock solution (10 mmol/L in dimethyl sulfoxide) was stored in a dark place at room temperature and diluted 1:10 (v/v) with KRP just before use. In all experiments, the final concentration of luminol was 100 μmol/L. In some experiments formylmethionyl-leucyl-phenylalanine (fMLP—Sigma Chemical Co.) was used for priming (5 nM) of CL emitting cells. All reagents used were of analytical grade and the water was glass-distilled.
Diluted whole blood (1:100 v/v final dilution) was used to avoid artifacts due to the isolation of PMNs. Peripheral venous blood from human adults was collected in heparinized tubes (20 U/mL). Samples with a total volume of 200 μL contained diluted whole fresh blood, luminol and zymosan in KRP. […] After diluted blood was added, the sample content was mixed and CL measured. […]

Row | Compound | relative contribution of extracellularly and intracellularly produced ROS (derived kinetic parameters) (diluted whole blood preincubated at 37° C. for 5 minutes with 3 nmol/liter fMLP, FIG. 2) | phagocytosis-related parts of the CL response (diluted whole blood preincubated at 37° C. for 5 minutes with 1.5 mmol/liter of aspirin, FIG. 6A)
1 | CSCC[C@H](NC=O)C(=O)N[C@@H](CC(C)C)C(=O)N[C@@H](Cc1ccccc1)C(=O)O [fMLP, N-formylmethionyl leucyl phenylalanine] | more significant for the extracellular ROS production | –
2 | CC(=O)Oc1ccccc1C(=O)O [aspirin] | – | significant decrease
